Results as given in publication PMC2195891 (2006).

Test system: human telomeric quadruplex (Htelo), 5'-biotin SPR strand (DNA, G4) GTTAGGGTTAGGGTTAGGGTTAGGGTTAGG
Assay: SPR, equilibrium response
Conditions: K+ 100 mM (KCl), 50 mM Tris-HCl pH 7.4

KD (up to 6.25 μM) [µM]	KD (up to 25 μM) [µM]	SMILES
0.83 ± 0.10		C[n+]1ccc(-c2c3nc(cc4ccc([nH]4)c(-c4cc[n+](C)cc4)c4nc(cc5ccc2[nH]5)C=C4)C=C3)cc1
	5.88 ± 0.90	C[n+]1ccc(-c2c3nc(c(-c4cc[n+](C)cc4)c4ccc([nH]4)c(-c4cc[n+](C)cc4)c4nc(cc5ccc2[nH]5)C=C4)C=C3)cc1
0.63 ± 0.08		C[n+]1ccc(-c2c3nc(c(-c4cc[n+](C)cc4)c4ccc([nH]4)c(-c4cc[n+](C)cc4)c4nc(c(-c5cc[n+](C)cc5)c5ccc2[nH]5)C=C4)C=C3)cc1
	18.90 ± 2.80	C[n+]1ccc(-c2c3nc(c(-c4cc[n+](C)cc4)c4ccc(cc5nc(cc6ccc2[nH]6)C=C5)[nH]4)C=C3)cc1
